Like-named read-outs stand apart in the source and are kept apart here.
How the values were obtained:
[1] = target: T1, neurokinin-1 (NK-1) receptor (Homo sapiens, UniProt P25103); assay: NK-1 Binding assay ([125I] Substance P competition, U373 cell membranes); settings: U373 membranes, [125I] Substance P displacement, read-out: NK-1 IC50
T1 construct: a human glioblastoma-astrocytoma cell line that endogenously expresses the neurokinin-1 (NK-1) receptor; endogenous in cells; host or cells: U373 human glioblastoma-astrocytoma cells (membranes)
T1 sequence (P25103 whole entry): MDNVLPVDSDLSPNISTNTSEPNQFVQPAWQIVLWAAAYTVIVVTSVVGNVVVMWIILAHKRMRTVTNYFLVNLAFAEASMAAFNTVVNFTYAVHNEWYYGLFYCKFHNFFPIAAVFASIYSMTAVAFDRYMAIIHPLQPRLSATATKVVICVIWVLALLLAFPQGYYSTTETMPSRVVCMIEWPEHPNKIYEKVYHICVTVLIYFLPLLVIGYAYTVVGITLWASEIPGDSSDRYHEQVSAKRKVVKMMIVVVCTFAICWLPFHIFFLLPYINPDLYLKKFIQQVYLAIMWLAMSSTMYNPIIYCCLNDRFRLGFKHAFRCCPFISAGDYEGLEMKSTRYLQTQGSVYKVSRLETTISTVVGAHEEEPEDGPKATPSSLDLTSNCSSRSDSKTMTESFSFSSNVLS
Method: NK-1 Binding assay. U373 cells, a human glioblastoma-astrocytoma cell line that endogenously expresses the neurokinin-1 (NK-1) receptor, were grown in a monolayer culture at 37° C. in 5% CO2 and fed with Minimum Essential Medium (MEM) supplemented with 10% fetal bovine serum. Membranes were prepared as follows: Cells were washed twice with ice-cold phosphate-buffered saline (pH 7.4) and then incubated for 5-10 minutes with ice-cold 10 mM Tris buffer (pH 7.4) containing 5 mM EDTA. Cells were removed from plates, homogenized, and centrifuged at 32,000×g for 20 minutes. The resulting supernatant was discarded, and the pellet resuspended by homogenization in 50 mM Tris buffer (pH 7.4) containing 1 mM EDTA and centrifuged at 32,000×g for 20 minutes. The resulting supernatant was discarded, and the pellet resuspended by homogenization in NK-1 binding assay buffer (50 mM Tris-HCL (pH 7.4), 3 mM MnCl2, 200 μg/ml BSA, 5 μg/ml chymostatin, 40 μg/ml bacitracin and 4 μg/ml leupeptin).
On the day of an experiment the membrane preparation was thawed, homogenized and diluted with NK-1 binding assay buffer to the appropriate concentration. […] Substance P, at a concentration of […], and concentrations of drugs ranging from 10000 to 0.01 nM. Samples were incubated for 30 min at 20° C. then filtered through GF/B glass fiber filters (pretreated with 1% polyethyleneimine and 0.3% Triton X-100) using a Brandel cell harvester. The filters were then washed with 10 ml ice cold 50 mM Tris-HCL (pH 7.4) containing 3 mM MgCl2. […] The amount of radioligand bound in the presence and absence of competitor was analyzed by plotting (-)log drug concentration versus the amount of radioligand specifically bound. The midpoint of the displacement curve (IC50, nM), signifies the potency.

[2] = target: T2, human serotonin transporters (Homo sapiens, UniProt P31645); assay: Serotonin transporter binding assay ([3H]-citalopram competition, HEK-hSERT cell membranes)
T2 construct: expressed in transfected cells
T2 sequence (P31645 whole entry): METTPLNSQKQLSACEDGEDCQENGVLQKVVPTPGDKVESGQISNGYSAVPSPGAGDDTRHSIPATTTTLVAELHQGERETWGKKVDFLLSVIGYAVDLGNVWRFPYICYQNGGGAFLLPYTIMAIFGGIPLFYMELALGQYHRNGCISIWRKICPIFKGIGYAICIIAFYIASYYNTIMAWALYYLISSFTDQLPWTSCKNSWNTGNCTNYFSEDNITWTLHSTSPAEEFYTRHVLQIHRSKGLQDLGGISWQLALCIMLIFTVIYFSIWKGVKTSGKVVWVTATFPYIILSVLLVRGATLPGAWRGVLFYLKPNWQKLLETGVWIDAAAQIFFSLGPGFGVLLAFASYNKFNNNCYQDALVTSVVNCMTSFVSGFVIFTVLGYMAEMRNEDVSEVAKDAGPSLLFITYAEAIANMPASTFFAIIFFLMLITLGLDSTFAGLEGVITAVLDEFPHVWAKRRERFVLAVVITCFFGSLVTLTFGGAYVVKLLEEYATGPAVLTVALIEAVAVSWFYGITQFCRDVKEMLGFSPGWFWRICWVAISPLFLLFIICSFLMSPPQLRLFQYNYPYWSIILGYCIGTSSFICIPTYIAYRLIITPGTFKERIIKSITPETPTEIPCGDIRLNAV
Method: Serotonin transporter binding assay. HEK-293 cells that stably express human serotonin transporters (HEK-hSERT cells) were grown at 37° C. in 5% CO2 as a monolayer in medium consisting of EMEM supplemented with 10% fetal bovine serum and G418 sulfate (500 μg/ml). To prepare membranes for radioligand binding experiments, cells were rinsed twice with phosphate-buffered saline (138 mM NaCl, 4.1 mM KCl, 5.1 mM Na2PO4, 1.5 mM KH2PO4, 11.1 mM glucose, pH 7.4). Cells were transferred from plates to polypropylene tubes (16×100 mm), centrifuged at 1,200×g for 5 min and were frozen at −80° C. until assay. Following centrifugation, pellets were resuspended by homogenization in buffer consisting of 50 mM Tris (pH 7.7 at 25° C.), 120 mM NaCl and 5 mM KCl and then centrifuged at 32,000×g for 10 min. Following centrifugation, supernatants were discarded and pellets were resuspended in buffer consisting of 50 mM Tris (pH 7.4 at 25° C.), 150 mM NaCl and 5 mM KCl. Membrane homogenates (200 μl/plate) were incubated with 1 nM [^3H]-citalopram (specific activity=85 Ci/mmol) and increasing concentrations of test compounds for 1 hr at 25° C. in a total volume of 250 μl. The assay buffer consisted of 50 mM Tris (pH 7.4 at 25° C.), 120 mM NaCl and 5 mM KCl (pH 7.4 with conc. HCl). Plates were incubated for 1 hr at 25° C., then filtered through 0.5% PEI treated Whatman GF/B filters using a Brandel cell harvester. Filters were washed three times with 3 ml of ice-cold tris wash buffer. Non-specific binding was defined with 10 μM fluoxetine. Amount of radioligand bound in the presence and absence of competitor was analyzed by plotting (-)log drug concentration versus the amount of radioligand specifically bound. The midpoint of the displacement curve (IC50, nM), signifies the potency. Ki values can be calculated using the method of Cheng and Prusoff (Cheng and Prusoff, BiochemicalPharmacology, Vol 22, pp. 3099-3108, Pergamon Press (1973)).

[3] = Table 2, HEK-hSERT membranes, [3H]-citalopram displacement, read-out: SERT IC50
[4] = Table 1, HEK-hSERT membranes, [3H]-citalopram displacement, read-out: SERT IC50

IC50 ([1]; Table 2) [nM]	IC50 [2, 3] [nM]	IC50 ([1]; Table 1) [nM]	IC50 [2, 4] [nM]	Structure (SMILES)	IC50 [2] [nM]
0.01 to 100	0.01 to 100			CC(C)OC(=O)c1ccc(-c2cc(COCC3(c4ccccc4)CCNCC3)cc(C(F)(F)F)c2)cc1	
100 to 300	0.01 to 100			CCOC(=O)c1cccc(-c2cc(COCC3(c4ccccc4)CCNCC3)cc(C(F)(F)F)c2)c1	
		0.01 to 100	0.01 to 100	N#Cc1ccc(-c2cc(COCC3(c4ccccc4)CCNCC3)cc(C(F)(F)F)c2)cc1	
0.01 to 100	0.01 to 100			Fc1cc(-c2cc(COCC3(c4ccccc4)CCNCC3)cc(C(F)(F)F)c2)cc(F)c1F	
		100 to 300	0.01 to 100	OCc1ccccc1-c1cc(COCC2(c3ccccc3)CCNCC2)cc(C(F)(F)F)c1	
		> 300	100 to 300	CN1CCN(c2cc(-c3cc(COCC4(c5ccccc5)CCNCC4)cc(C(F)(F)F)c3)ccn2)CC1	
0.01 to 100	0.01 to 100			N#Cc1ccc(-c2cc(COCC3(c4ccc(Br)cc4)CCNCC3)cc(C(F)(F)F)c2)cc1	
> 300	0.01 to 100			FC(F)(F)Oc1cccc(-c2cc(COCC3(c4ccccc4)CCNCC3)cc(C(F)(F)F)c2)c1	
0.01 to 100	0.01 to 100			Cc1cc(COCC2(c3ccccc3)CCNCC2)cc(-c2ccc(C#N)cc2)c1	
		100 to 300	0.01 to 100	FC(F)(F)c1cc(COCC2(c3ccccc3)CCNCC2)cc(-c2cccc3cccnc23)c1	
0.01 to 100	0.01 to 100			COc1cc(COCC2(c3ccccc3)CCNCC2)cc(-c2ccc(F)cc2)c1	
0.01 to 100	0.01 to 100			Cc1cc(-c2cc(COCC3(c4ccccc4)CCNCC3)cc(C(F)(F)F)c2)ccc1F	
0.01 to 100	0.01 to 100			COc1ccc(-c2cc(COCC3(c4ccccc4)CCNCC3)cc(C(F)(F)F)c2)cc1C	
		0.01 to 100	0.01 to 100	COc1ccccc1-c1cc(COCC2(c3ccccc3)CCNCC2)cc(C(F)(F)F)c1	
0.01 to 100	0.01 to 100			COc1cc(-c2cc(COCC3(c4ccccc4)CCNCC3)cc(C(F)(F)F)c2)ccc1O	
0.01 to 100	0.01 to 100			COc1c(C)cc(-c2ccc(C#N)cc2)cc1COCC1(c2ccccc2)CCNCC1	
		> 300	0.01 to 100	FC(F)(F)c1cc(COCC2(c3ccccc3)CCNCC2)cc(-c2cccc3c2oc2ccccc23)c1	
0.01 to 100	0.01 to 100			N#Cc1c(F)c(F)c(-c2cc(COCC3(c4ccccc4)CCNCC3)cc(C(F)(F)F)c2)c(F)c1F	
0.01 to 100	0.01 to 100			N#Cc1ccc(-c2cc(F)cc(COCC3(c4ccccc4)CCNCC3)c2)cc1	
		100 to 300	100 to 300	FC(F)(F)c1cc(COCC2(c3ccccc3)CCNCC2)cc(-c2cccc(-c3ccccc3)c2)c1	
		0.01 to 100	0.01 to 100	FC(F)(F)c1cc(COCC2(c3ccccc3)CCNCC2)cc(-c2ccc(Cl)nc2)c1	
		0.01 to 100	0.01 to 100	FC(F)(F)c1cc(COCC2(c3ccccc3)CCNCC2)cc(-c2ccc(Cl)nc2Cl)c1	

Structure (SMILES)	IC50 ([1]; Table 2) [nM]	IC50 [2, 3] [nM]	IC50 ([1]; Table 1) [nM]	IC50 [2, 4] [nM]	IC50 [2] [nM]
COc1c(F)cc(-c2cc(COCC3(c4ccccc4)CCN(C)CC3)cc(C(F)(F)F)c2)cc1F	0.01 to 100				0.01 to 100
CN1CCC(COCc2cc(-c3ccc(C#N)cc3)cc(C(F)(F)F)c2)(c2ccccc2F)CC1	0.01 to 100				0.01 to 100
CN1CCC(COCc2cc(-c3cccc(F)c3)cc(C(F)(F)F)c2)(c2ccccc2)CC1	0.01 to 100				0.01 to 100
CN1CCC(COCc2cc(-c3ccc(C#N)cc3)cc(C(F)(F)F)c2)(c2ccc(F)cc2F)CC1	0.01 to 100				0.01 to 100
CN1CCC(COCc2cc(-c3c(F)c(F)c(C#N)c(F)c3F)cc(C(F)(F)F)c2)(c2ccccc2)CC1	0.01 to 100				0.01 to 100

From patent US20070249607A1, “NK-1 AND SEROTONIN TRANSPORTER INHIBITORS” (Bristol-Myers Squibb Company, priority 2006, published 2007)
